How the values were obtained:
[1] = system: HCT-116; assay: Antiproliferative activity against human HCT116 cells assessed as reduction in cell growth measured after 48 hrs by CCK8 assay; format: functional, cell-based; conditions: HCT-116, 48 h
[2] = biological target: T1, Peptide deformylase, mitochondrial (Homo sapiens, UniProt Q9HBH1); assay: Inhibition of human PDF expressed in Escherichia coli BL21 pLysS using formyl-Met-Ala-His-Ala peptide as substrate measured after 1 hr by fluorescamine-based fluorescence assay
T1 sequence (Q9HBH1 whole entry): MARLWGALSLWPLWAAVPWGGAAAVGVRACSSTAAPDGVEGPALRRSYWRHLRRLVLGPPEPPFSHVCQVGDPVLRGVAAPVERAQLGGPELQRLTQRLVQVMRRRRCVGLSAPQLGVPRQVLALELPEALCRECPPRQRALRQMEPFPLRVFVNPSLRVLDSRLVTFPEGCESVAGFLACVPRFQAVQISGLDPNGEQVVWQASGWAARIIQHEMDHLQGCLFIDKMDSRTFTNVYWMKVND

[3] = system: A549; assay: Antiproliferative activity against human A549 cells assessed as reduction in cell growth measured after 48 hrs by CCK8 assay; format: functional, cell-based; conditions: A549, 48 h
[4] = biological target: T2, Histone deacetylase 1 (Homo sapiens, UniProt Q13547); assay: Inhibition of HDAC1 (unknown origin) at 10 uM using Boc-Lys(Ac)-pNA as substrate preincubated for 20 mins followed by substrate addition and further incubated for 90 mins by fluorescence assay relative to control
[5] = biological target: T2, Histone deacetylase 1; assay: Inhibition of HDAC1 (unknown origin) using Boc-Lys(Ac)-pNA as substrate preincubated for 20 mins followed by substrate addition and further incubated for 90 mins by fluorescence assay
[6] = system: SJSA-1; assay: Antiproliferative activity against human SJSA1 cells assessed as reduction in cell growth measured after 48 hrs by CCK8 assay; format: functional, cell-based; conditions: SJSA-1, 48 h
[7] = system: MCF-10A; assay: Cytotoxicity against human MCF10A cells assessed as reduction in cell growth measured after 48 hrs by CCK8 assay; format: cell-based
[8] = system: MCF7; assay: Antiproliferative activity against human MCF7 cells assessed as reduction in cell growth measured after 48 hrs by CCK8 assay; format: functional, cell-based; conditions: MCF7, 48 h
[9] = biological target: T3, Protein deacetylase HDAC6 (Homo sapiens) (UniProt Q9UBN7); assay: Inhibition of HDAC6 (unknown origin) at 10 uM using Boc-Lys(Ac)-pNA as substrate preincubated for 20 mins followed by substrate addition and further incubated for 90 mins by fluorescence assay relative to control
T3 sequence (whole entry): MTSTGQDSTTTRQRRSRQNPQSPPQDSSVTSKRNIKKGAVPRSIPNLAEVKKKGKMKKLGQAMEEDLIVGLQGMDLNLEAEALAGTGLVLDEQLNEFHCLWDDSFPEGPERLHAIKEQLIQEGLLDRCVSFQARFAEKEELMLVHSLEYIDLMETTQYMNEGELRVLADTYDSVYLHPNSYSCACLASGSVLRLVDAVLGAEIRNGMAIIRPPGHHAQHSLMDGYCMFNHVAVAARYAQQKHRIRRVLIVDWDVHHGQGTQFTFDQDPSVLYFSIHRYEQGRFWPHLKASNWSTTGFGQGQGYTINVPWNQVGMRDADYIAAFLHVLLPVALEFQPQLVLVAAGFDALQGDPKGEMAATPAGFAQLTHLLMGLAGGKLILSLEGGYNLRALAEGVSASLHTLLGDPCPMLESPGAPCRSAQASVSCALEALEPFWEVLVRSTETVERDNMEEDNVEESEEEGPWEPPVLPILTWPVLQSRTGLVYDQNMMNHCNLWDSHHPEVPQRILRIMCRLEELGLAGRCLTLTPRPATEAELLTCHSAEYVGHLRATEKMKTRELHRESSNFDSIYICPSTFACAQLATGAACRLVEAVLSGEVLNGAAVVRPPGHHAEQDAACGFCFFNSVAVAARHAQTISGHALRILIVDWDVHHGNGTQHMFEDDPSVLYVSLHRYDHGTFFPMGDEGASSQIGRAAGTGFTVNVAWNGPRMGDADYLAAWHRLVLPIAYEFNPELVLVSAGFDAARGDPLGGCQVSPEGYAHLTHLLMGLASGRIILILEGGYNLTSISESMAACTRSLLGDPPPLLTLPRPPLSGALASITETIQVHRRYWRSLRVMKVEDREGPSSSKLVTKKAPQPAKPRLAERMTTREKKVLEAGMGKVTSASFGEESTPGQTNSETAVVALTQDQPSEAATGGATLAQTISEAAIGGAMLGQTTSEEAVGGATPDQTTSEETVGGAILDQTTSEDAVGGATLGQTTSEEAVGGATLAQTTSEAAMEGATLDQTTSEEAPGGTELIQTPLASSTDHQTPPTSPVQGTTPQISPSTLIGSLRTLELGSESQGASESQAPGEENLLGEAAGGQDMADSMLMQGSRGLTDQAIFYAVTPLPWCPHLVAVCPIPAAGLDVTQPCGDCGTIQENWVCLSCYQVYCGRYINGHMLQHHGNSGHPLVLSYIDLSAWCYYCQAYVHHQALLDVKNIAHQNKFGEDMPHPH

[10] = system: HL-60; assay: Antiproliferative activity against human HL60 cells assessed as reduction in cell growth measured after 48 hrs by CCK8 assay; format: functional, cell-based; conditions: HL-60, 48 h
[11] = biological target: T4, Protein deacetylase HDAC6 (Homo sapiens, UniProt Q9UBN7); assay: Inhibition of HDAC6 (unknown origin) using Boc-Lys(Ac)-pNA as substrate preincubated for 20 mins followed by substrate addition and further incubated for 90 mins by fluorescence assay
T4 sequence (Q9UBN7 whole entry): T3 sequence (whole entry)

T2 sequence (Q13547 whole entry): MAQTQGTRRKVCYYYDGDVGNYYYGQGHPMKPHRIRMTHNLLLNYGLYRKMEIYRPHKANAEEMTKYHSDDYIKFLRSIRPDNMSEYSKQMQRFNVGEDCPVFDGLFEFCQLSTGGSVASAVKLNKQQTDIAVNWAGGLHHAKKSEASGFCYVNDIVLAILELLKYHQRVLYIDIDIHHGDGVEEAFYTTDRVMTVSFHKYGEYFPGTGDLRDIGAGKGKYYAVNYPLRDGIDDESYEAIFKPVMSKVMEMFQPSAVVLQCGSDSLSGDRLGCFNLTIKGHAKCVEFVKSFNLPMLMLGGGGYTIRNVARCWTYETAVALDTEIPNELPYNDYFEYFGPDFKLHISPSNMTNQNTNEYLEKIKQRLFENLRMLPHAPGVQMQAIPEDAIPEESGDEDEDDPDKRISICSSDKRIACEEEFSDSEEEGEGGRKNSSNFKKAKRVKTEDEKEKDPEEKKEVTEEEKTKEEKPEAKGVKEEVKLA

Structure (SMILES) | IC50 [1] | IC50 [2] | also measured
O=C(C[C@@H](CC1CCCC1)C(=O)N1CC2(CC2)C[C@H]1C(=O)Nc1ccncn1)NO | > 40 µM | 0.00953 µM | –
O=C(C[C@@H](CC1CCCC1)C(=O)N1CC2(CC2)C[C@H]1C(=O)Nc1cnccn1)NO | > 40 µM | 0.00587 µM | –
Cc1noc([C@@H]2CC3(CC3)CN2C(=O)[C@@H](CC(=O)NO)CC2CCCC2)n1 | > 40 µM | 0.0293 µM | –
Cc1ccc(NC(=O)[C@@H]2CC3(CC3)CN2C(=O)[C@@H](CC(=O)NO)CC2CCCC2)cc1 | 11.2 µM | 0.00358 µM | –
CCCC[C@H](CC(=O)NO)C(=O)N1CC2(CC2)C[C@H]1C(=O)Nc1ncc(C)s1 | > 40 µM | 0.00942 µM | –
O=C(C[C@@H](CC1CCCC1)C(=O)N1CC2(CC2)C[C@H]1C(=O)Nc1cccnn1)NO | > 40 µM | 0.0131 µM | –
O=C(C[C@@H](CC1CCCC1)C(=O)N1CC2(CC2)C[C@H]1c1nc(-c2cc(F)cc(F)c2F)no1)NO | 3.62 µM | 0.00708 µM | –
O=C(C[C@@H](CC1CCCC1)C(=O)N1CC2(CC2)C[C@H]1c1nc(-c2ccccc2)no1)NO | 4.46 µM | 0.00377 µM | IC50 [3]: 2.55 µM; inhibition [4]: -0.95%; IC50 [5]: > 10 µM; IC50 [6]: 3.8 µM; IC50 [7]: 32.3 µM; IC50 [8]: 8.64 µM; inhibition [9]: 1.08%; IC50 [10]: 3.58 µM; IC50 [11]: > 10 µM
O=C(C[C@@H](CC1CCCC1)C(=O)N1CC2(CC2)C[C@H]1C(=O)Nc1ccccc1)NO | 14.9 µM | 0.00642 µM | –
Cc1ccc(-c2noc([C@@H]3CC4(CC4)CN3C(=O)[C@@H](CC(=O)NO)CC3CCCC3)n2)cc1 | 7.78 µM | 0.00926 µM | IC50 [3]: 8.69 µM; IC50 [6]: 5.35 µM; IC50 [7]: 29.8 µM; IC50 [8]: 9.89 µM; IC50 [10]: 5.35 µM
O=C(C[C@@H](CC1CCCC1)C(=O)N1CCC[C@H]1C(=O)Nc1ccc(F)cn1)NO | > 40 µM | 0.0109 µM | –
Cc1cnc(NC(=O)[C@@H]2CC3(CC3)CN2C(=O)[C@@H](CC(=O)NO)CC2CCCC2)s1 | 18.7 µM | 0.00278 µM | –
O=C(C[C@@H](CC1CCCC1)C(=O)N1CC2(CC2)C[C@H]1c1nc(-c2ccc(Br)cc2)no1)NO | 2.87 µM | 0.00548 µM | IC50 [3]: 2.61 µM; IC50 [6]: 2.56 µM; IC50 [7]: 21.7 µM; IC50 [8]: 3.56 µM; IC50 [10]: 2.17 µM
CCCCc1ccc(-c2noc([C@@H]3CC4(CC4)CN3C(=O)[C@@H](CC(=O)NO)CC3CCCC3)n2)cc1 | 2.07 µM | 0.00424 µM | –
O=C(C[C@@H](CC1CCCC1)C(=O)N1CC2(CC2)C[C@H]1C(=O)Nc1nccs1)NO | > 40 µM | 0.00874 µM | –
O=C(C[C@@H](CC1CCCC1)C(=O)N1CC2(CC2)C[C@H]1c1nc(-c2ccc(C3CC3)cc2)no1)NO | 3.47 µM | 0.00501 µM | –

Structure (SMILES) | IC50 [1] | IC50 [2] | also measured
Cc1cc(C)cc(C(=O)NOCCCCCC(=O)NO)c1 | – | – | IC50 [5]: 0.058 µM; IC50 [11]: 0.012 µM
O=C(C[C@@H](CC1CCCC1)C(=O)N1CC2(CC2)C[C@H]1C(=O)Nc1ccc(F)cc1C(F)(F)F)NO | 24.5 µM | 0.00701 µM | –
Cc1csc(NC(=O)[C@@H]2CC3(CC3)CN2C(=O)[C@@H](CC(=O)NO)CC2CCCC2)n1 | 29.1 µM | 0.00299 µM | –
O=C(C[C@@H](CC1CCCC1)C(=O)N1CC2(CC2)C[C@H]1c1nc(-c2cnccn2)no1)NO | > 40 µM | 0.0161 µM | –
Cn1cc(NC(=O)[C@@H]2CC3(CC3)CN2C(=O)[C@@H](CC(=O)NO)CC2CCCC2)cn1 | > 40 µM | 0.0302 µM | –
O=C(C[C@@H](CC1CCCC1)C(=O)N1CC2(CC2)C[C@H]1C(=O)Nc1ccc(F)cn1)NO | 20.2 µM | 0.00587 µM | –
Cc1cnc(NC(=O)[C@@H]2CCCN2C(=O)[C@@H](CC(=O)NO)CC2CCCC2)s1 | > 40 µM | 0.00894 µM | –
O=C(C[C@@H](CC1CCCC1)C(=O)N1CC2(CC2)C[C@H]1c1nc(-c2ccc(F)cn2)no1)NO | > 40 µM | 0.00501 µM | –
O=C(C[C@@H](CC1CCCC1)C(=O)N1CC2(CC2)C[C@H]1C(=O)Nc1ccc(Br)cc1)NO | 5.35 µM | 0.00612 µM | –
C=C1C[C@@H](C(=O)Nc2ccc(F)cn2)N(C(=O)[C@@H](CC(=O)NO)CC2CCCC2)C1 | > 40 µM | 0.00715 µM | –
O=C(C[C@@H](CC1CCCC1)C(=O)N1CC2(CC2)C[C@H]1c1nc(-c2ccc(C(F)(F)F)cc2F)no1)NO | 10 µM | 0.00485 µM | IC50 [3]: 10.3 µM; IC50 [6]: 8.7 µM; IC50 [7]: 29.1 µM; IC50 [8]: 10.6 µM; IC50 [10]: 4.77 µM
O=C(C[C@@H](CC1CCCC1)C(=O)N1CC2(CC2)C[C@H]1c1nc(-c2ccc(C(F)(F)F)cc2)no1)NO | 4.11 µM | 0.00719 µM | IC50 [3]: 3.45 µM; IC50 [6]: 2.95 µM; IC50 [7]: 22.4 µM; IC50 [8]: 5.79 µM; IC50 [10]: 3.06 µM
CCc1ccc(-c2noc([C@@H]3CC4(CC4)CN3C(=O)[C@@H](CC(=O)NO)CC3CCCC3)n2)cc1 | 2.31 µM | 0.00881 µM | IC50 [3]: 2.43 µM; IC50 [6]: 2.82 µM; IC50 [7]: 19.9 µM; IC50 [8]: 3.95 µM; IC50 [10]: 1.88 µM
O=C(C[C@@H](CC1CCCC1)C(=O)N1CC2(CC2)C[C@H]1c1nc(-c2ccc(C(F)(F)F)cc2Cl)no1)NO | 3.49 µM | 0.00647 µM | IC50 [3]: 2.53 µM; IC50 [6]: 3.15 µM; IC50 [7]: 28.4 µM; IC50 [8]: 5.78 µM; IC50 [10]: 3.45 µM
CCCC[C@H](CC(=O)NO)C(=O)N1CC2(CC2)C[C@H]1C(=O)Nc1ccc(F)cn1 | > 40 µM | 0.00492 µM | –

Source: ChEMBL document CHEMBL4616720 (J Med Chem, 2020)
